{"source": "patent US20260355182A1", "about": "“ISOQUINOLINE DERIVATIVE, SYNTHESIS METHOD THEREFOR, AND USE THEREOF” (Harbin Gloria Pharmaceuticals Co., Ltd., priority 2023, published 2026)", "key": {"[1]": {"tested_on": "SK-N-SH cells", "experiment": "Dose-effect relationship on cellular ATP levels in cultured SK-N-SH cells", "assay_type": "cell-based, human", "procedure": "SK-N-SH cells were seeded in a 6-well plate at a density of 6×10^4 per well. Cells were cultured for 12 hours under 5% O2, and the drug was added. Cells were harvested after 48 hours. Cellular ATP levels were measured using a Promega ATP assay kit. The experiment was repeated 5 times to 7 times."}, "[2]": {"tested_on": "db/db mice", "experiment": "Hypoglycemic effect in diabetic model db/db mice, intraperitoneal", "assay_type": "in vivo", "conditions": "4 hours", "procedure": "Gene knockout db/db mice are a classic model of hyperglycemia and obesity. Under normal feeding conditions, mice aged 3 months or older developed hyperglycemia and obesity. After the mice were provided with only drinking water (fasted) for 6 hours, blood was collected from the tail of the mice to measure blood glucose values. Subsequently, different drugs, including saline (control), liraglutide at 0.6 mg/Kg, low-concentration T6 (T6 low, 0.1 mg/Kg), and high-concentration T6 (T6 high, 0.5 mg/Kg), were injected intraperitoneally. 4 hours later, blood was collected from the tail of the mice to measure the blood glucose levels. Each group consisted of 6 mice. Blood glucose levels before administration (Vbefore) and after administration (Vafter) were obtained for each mouse. The effect of the drug on blood glucose (%) was calculated as follows:\n(Vbefore−Vafter)×100/Vbefore."}, "[3]": {"tested_on": "db/db mice", "experiment": "Chronic treatment assay, HbA1c in db/db mice (ELISA)", "assay_type": "in vivo", "conditions": "drinking water 2 weeks, particularly T6 1.5 mg/kg, vs untreated control", "procedure": "The db/db mice were used to evaluate the glucose-lowering activity of compound T6 in comparison with reference metabolic agents (TZ 0.5 mg/Kg, liraglutide 0.6 mg/Kg, T6 0.5 mg/Kg). In FIG. 15, A) for the acute glucose-response assay, drugs were administered to non-fasted db/db mice. Immediately after drug administration (s. c.), mice were deprived of food and water, and blood glucose levels were measured from tail blood samples 2 h later. The relative percentage change in blood glucose was calculated by comparing glucose levels before and after treatment in the same animal. […] HbA1c levels were then measured using a glycated hemoglobin A1c enzyme-linked immunosorbent assay, also referred to as a mouse HbA1c ELISA assay. […] Data are presented as mean±error bars, with individual circles representing individual animals. Statistical significance is indicated as P<0.001 (**) and P<0.0001 (***)."}, "[4]": {"tested_on": "MPTP-induced Parkinsonian mouse model", "experiment": "MPTP-induced Parkinsonian mouse model, rotarod and TH Western blot (T6)", "assay_type": "in vivo", "conditions": "T6 0.15, 0.3 and 1.5 mg/kg", "procedure": "Mice were administered MPTP at 20 mg/kg to induce Parkinsonian motor impairment and dopaminergic neuronal injury. […] In FIG. 13, A) motor coordination and endurance were assessed using the rotarod test and are expressed as the time remaining on the rotating rod. […] Actin was used as a loading control. […] Data are presented as mean±error bars, with individual points representing biological replicates. Significance of one-way ANOVA analysis is indicated as P<0.05 (*), P<0.01 (**), and P<0.001 (***)."}, "[5]": {"biological_target": "T1, Pgk1 (Homo sapiens, UniProt P00558)", "T1 sequence (P00558 1-417)": "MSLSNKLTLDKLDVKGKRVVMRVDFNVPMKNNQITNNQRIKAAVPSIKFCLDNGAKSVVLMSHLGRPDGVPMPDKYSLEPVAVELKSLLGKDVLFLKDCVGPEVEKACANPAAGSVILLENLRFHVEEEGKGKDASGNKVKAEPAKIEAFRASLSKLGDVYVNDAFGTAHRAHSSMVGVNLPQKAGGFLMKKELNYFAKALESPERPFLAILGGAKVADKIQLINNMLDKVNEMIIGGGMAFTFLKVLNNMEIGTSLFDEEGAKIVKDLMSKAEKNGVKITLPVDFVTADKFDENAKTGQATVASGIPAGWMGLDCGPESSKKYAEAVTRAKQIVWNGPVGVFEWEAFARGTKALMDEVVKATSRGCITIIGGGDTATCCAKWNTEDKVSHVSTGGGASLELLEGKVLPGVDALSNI", "experiment": "T6 binding affinity with Pgk1 by SPR", "conditions": "steady-state affinity model", "description": "Surface plasmon resonance (SPR) was used to measure the interaction between the small molecule T6 and Pgk1. Equilibrium binding responses at increasing T6 concentrations were fitted using a steady-state affinity model. In FIG. 9, diamonds represent the measured response units (RU), and the black curve indicates the fitted binding isotherm. […] The vertical line marks the calculated KD value."}, "[6]": {"tested_on": "primary mouse neurons", "experiment": "Cellular status and glucose metabolism-related gene expression in primary mouse neurons", "assay_type": "cell-based", "conditions": "normoxic, 72 h, T6 10 PM (so in the source)", "description": "In FIG. 10, A) representative bright-field images show the cellular status of primary neurons after treatment. […] The analyzed genes included G6PD, HK2, LDHA, PDK1, PGK1, and SLC2A1/GLUT1. […] TZ treatment produced a similar but generally more moderate metabolic gene-response profile, including increased LDHA, PDK1, and SLC2A1/GLUT1 expression. […] Error bars indicate variation among measurements. […] The results support the use of T6 or related compounds as agents capable of regulating neuronal metabolic status and glucose metabolism-associated pathways."}, "[7]": {"tested_on": "FUS-525-GFP", "experiment": "Level of ALS-associated mutant FUS-GFP protein in primary mouse neurons (Western blot)", "assay_type": "cell-based", "conditions": "5, 10 or 20 μM", "procedure": "Primary mouse neurons were engineered to express GFP-tagged mutant FUS-525, an ALS-associated pathogenic FUS variant, and were treated with vehicle control or compound T6 at 5, 10, or 20 μM. Cell lysates were analyzed by Western blotting using antibodies detecting FUS-GFP, with GAPDH serving as a loading control. In FIG. 11, the FUS-GFP fusion protein was detected at approximately 96 kDa, whereas GAPDH was detected at approximately 38 kDa."}}, "note": "pKd: −log10 of the molar value. Read-outs that look alike come from different tables or passages of the source.", "data": [{"smiles": "Nc1nc(N2CCN(C(=O)[C@H]3CCCO3)CC2)cc2cc3c(cc12)OCC3", "note": "[Compound T6]", "values": [{"measurement": "Inhibition of cell growth", "setting": "[1]; 50 μM, SK-N-SH cells", "result": "a tendency to inhibit cell growth"}, {"measurement": "minimal effective concentration", "setting": "[1]; Homo sapiens, 48 h, SK-N-SH cells, read-out: Biologically effective concentration", "result": "~10", "unit": "µM"}, {"measurement": "Optimal dose for cellular ATP levels", "setting": "[1]; doses 5, 10 and 50 μM, 48 hours, 5% O2", "result": 50, "unit": "µM"}, {"measurement": "Hypoglycemic effect (low concentration)", "setting": "[2]; 0.1 mg/kg i.p.", "result": "significant hypoglycemic effects"}, {"measurement": "Hypoglycemic effect (high concentration)", "setting": "[2]; 0.5 mg/kg i.p.", "result": "significant hypoglycemic effects"}, {"measurement": "HbA1c level", "setting": "[3]", "result": "reduced HbA1c levels"}, {"measurement": "Rotarod performance", "setting": "[4]; MPTP 20 mg/kg", "result": "improved rotarod performance in MPTP-treated mice, with significant protective effects"}, {"measurement": "TH protein abundance", "setting": "[4]; normalized to actin, vs MPTP alone", "result": "significantly increased relative TH abundance"}, {"measurement": "Estimated Rmax", "setting": "[5]", "result": 7.799, "unit": "RU"}, {"measurement": "pKd", "setting": "[5]; read-out: KD (approximately)", "result": "~4.65"}, {"measurement": "pKd", "setting": "[5]; read-out: KD (fitted dissociation constant)", "result": 4.65}, {"measurement": "Relative mRNA expression of G6PD", "setting": "[6]; control = 1.0", "result": "increased"}, {"measurement": "Neuronal cellular morphology/status", "setting": "[6]; TZ 10 μM", "result": "detectable changes in neuronal cellular morphology/status"}, {"measurement": "Relative mRNA expression of HK2", "setting": "[6]; TZ 10 μM, control = 1.0", "result": "not increased"}, {"measurement": "Relative mRNA expression of LDHA", "setting": "[6]; TZ 10 μM, control = 1.0", "result": "increased"}, {"measurement": "Relative mRNA expression of PDK1", "setting": "[6]; TZ 10 μM, control = 1.0", "result": "increased"}, {"measurement": "Relative mRNA expression of PGK1", "setting": "[6]; TZ 10 μM, control = 1.0", "result": "only modestly changed"}, {"measurement": "Relative mRNA expression of SLC2A1/GLUT1", "setting": "[6]; TZ 10 μM, control = 1.0", "result": "increased"}, {"measurement": "Abundance of mutant FUS-GFP protein", "setting": "[7]", "result": "reduced the abundance of mutant FUS-GFP protein"}, {"measurement": "GAPDH level", "setting": "[7]; loading control", "result": "remained largely unchanged"}]}]}
